For 21 molecules, inhibition results are on record in ChEMBL document CHEMBL4265965, “Dichloroacetophenones targeting at pyruvate dehydrogenase kinase 1 with improved selectivity and antiproliferative activity: Synthesis and structure-activity relationships” (Bioorg Med Chem Lett, 2018).

Common to all, as to type: functional
Assay [1] deals with NCI-H1650. Put plainly: Antiproliferative activity against human NCI-H1650 cells assessed as inhibition of cell proliferation at 2 uM after 72 hrs by MTT assay relative to control. The settings on record: for inhibition at 2 µM: NCI-H1650, 72 h. On the technique in general: Tetrazolium dyes change colour on reduction, which living cells bring about.
Assay [2] deals with NCI-H1975. Put plainly: Antiproliferative activity against human NCI-H1975 cells assessed as inhibition of cell proliferation at 6 uM after 72 hrs by MTT assay relative to control. The settings on record: for inhibition at 6 µM: NCI-H1975, 72 h.
Assay [3] relates to A549. The experiment in a line: Antiproliferative activity against human A549 cells assessed as inhibition of cell proliferation at 12 uM after 72 hrs by MTT assay relative to control. Conditions: A549, 72 h.
The subject of assay [4] is NCI-H1975. The experiment in a line: Antiproliferative activity against human NCI-H1975 cells assessed as inhibition of cell proliferation at 2 uM after 72 hrs by MTT assay relative to control. Conditions: for inhibition at 2 µM: NCI-H1975, 72 h.
For assay [5], the system named is NCI-H1650. The experiment in a line: Antiproliferative activity against human NCI-H1650 cells assessed as inhibition of cell proliferation at 6 uM after 72 hrs by MTT assay relative to control. Conditions: for inhibition at 6 µM: NCI-H1650, 72 h.
Assay [6] concerns A549. The experiment in a line: Antiproliferative activity against human A549 cells assessed as inhibition of cell proliferation at 6 uM after 72 hrs by MTT assay relative to control. The settings on record: for inhibition at 6 µM: A549, 72 h.
Assay [7] has as its system A549. The experiment in a line: Antiproliferative activity against human A549 cells assessed as inhibition of cell proliferation at 2 uM after 72 hrs by MTT assay relative to control. The settings on record: for inhibition at 2 µM: A549, 72 h.
Assay [8] concerns NCI-H1975. Put plainly: Antiproliferative activity against human NCI-H1975 cells assessed as inhibition of cell proliferation at 12 uM after 72 hrs by MTT assay relative to control. The settings on record: NCI-H1975, 72 h.
In assay [9] the test system is NCI-H1650. The experiment in a line: Antiproliferative activity against human NCI-H1650 cells assessed as inhibition of cell proliferation at 12 uM after 72 hrs by MTT assay relative to control. The settings on record: NCI-H1650, 72 h.

Each structure is given as a SMILES string. The source made the active and inactive calls. The calls are words filed in the database; no cut-off is given here.

Take `O=C(c1ccc(Br)c([N+](=O)[O-])c1)C(Cl)Cl`: the inhibition entry in assay [1] and in [5] was “inactive” throughout. The inhibition (in general, how much of the control response was suppressed) at 6 µM in assay [2] came out at 74.1%; in assay [6] it was 14.1%. The values for the inhibition at 12 µM in assay [3], in [8] and in assay [9] were 50.5%, 98.9% and 59.1%, respectively. Besides, the figures for the inhibition at 2 µM in assay [4] and in assay [7] were 9.1% and 6.5%, respectively.
Turning to `CC(C)c1ccc(C(=O)C(Cl)(Cl)Cl)cc1[N+](=O)[O-]`, the inhibition entry in [1], in assay [2], in assay [4], in assay [5], in assay [6] and in assay [7] was “inactive” each time. The inhibition at 12 µM in [3] was 12.5%; in [8], 31.2%; in assay [9], 22.6%.
Regarding `O=C(c1cccc(C(F)(F)F)c1)C(Cl)Cl`, the inhibition at 2 µM in assay [1] came out at 24%; in assay [4], 45.8%; in assay [7] it was 11%. In addition, the figures for the inhibition at 6 µM in [2], in assay [5] and in [6] were 96.6%, 65.9% and 28.4%, respectively. Moreover, the results for the inhibition at 12 µM in [3], in assay [8] and in assay [9] were 77.9%, 97.8% and 97.5%, respectively.
Regarding `O=C(c1cccc(Br)c1)C(Cl)Cl`, the values for the inhibition at 2 µM in [1], in assay [4] and in assay [7] were 18.1%, 44.9% and 15.6%, respectively. The inhibition at 6 µM in [2] is 86.2%; in [5], 43.6%; in [6] it was 24.7%. In addition, the inhibition at 12 µM in [3] was found to be 72%; in assay [8], 97.4%; in assay [9], 79.6%.
`O=C(c1ccc(Br)cc1)C(Cl)Cl`: the inhibition at 2 µM in assay [1] turned out to be 23.5%; in [4], 13.3%. Also, the inhibition at 6 µM in assay [2] is 67.7%; in [5] it was 37.8%; in assay [6], 16.2%. Also, the inhibition at 12 µM was determined as 48.8% in assay [3], 96.1% in [8] and 73.4% in assay [9]. In addition, the inhibition entry in assay [7] is “inactive”.
As for `N#Cc1ccc(C(=O)C(Cl)Cl)cc1`, the inhibition at 2 µM was determined as 11.8% in [1], 54.6% in assay [4] and 8.5% in [7]. Moreover, the inhibition at 6 µM was 99.4% in [2], 65.8% in assay [5] and 15.9% in assay [6]. Besides, the inhibition at 12 µM was found to be 61.4% in [3], 99.7% in assay [8] and 96.5% in [9].
For `O=C(c1ccc(F)cc1F)C(Cl)Cl`, the results for the inhibition at 2 µM in assay [1], in [4] and in [7] were 30.8%, 74.3% and 4.8%, respectively. For the same molecule, the inhibition at 6 µM in assay [2] stood at 97.5%; in assay [5], 65.5%; in assay [6] it was 50.1%. For the same molecule, the inhibition at 12 µM in assay [3] worked out at 58.5%; in assay [8] it was 98.7%; in [9], 95.3%.
`O=C(c1cccc(I)c1)C(Cl)Cl`: the inhibition at 2 µM in assay [1] was found to be 46.1%; in assay [4] it was 64%; in assay [7] it was 20.4%. In addition, the inhibition at 6 µM is 97.5% in assay [2], 82% in assay [5] and 67% in assay [6]. For the same molecule, the inhibition at 12 µM in [3] worked out at 89.8%; in assay [8] it was 99.1%; in assay [9], 98.7%.
Take `O=C(c1ccc(F)cc1)C(Cl)Cl`: the inhibition at 2 µM worked out at 26.5% in assay [1], 15.4% in [4] and 4.7% in [7]. For the same molecule, the inhibition at 6 µM in assay [2] amounted to 92.1%; in assay [5], 62.9%; in assay [6], 15.5%. The results for the inhibition at 12 µM in assay [3], in [8] and in assay [9] were 48.1%, 98.3% and 95.5%, respectively.
Turning to `COc1cccc2c1C(=O)c1c(O)c3c(c(O)c1C2=O)C[C@@](O)(C(=O)CO)C[C@@H]3O[C@H]1C[C@H](N)[C@H](O)[C@H](C)O1` [DOXORUBICIN], the inhibition at 2 µM in assay [1] came to 60.5%; in assay [4] it was 72.4%; in assay [7], 52.3%. The inhibition at 6 µM worked out at 90.6% in assay [2], 86.9% in [5] and 86.7% in assay [6]. Besides, the inhibition at 12 µM is 98.9% in assay [3], 98.6% in assay [8] and 99.6% in assay [9].
With `O=C(c1cccc([N+](=O)[O-])c1)C(Cl)Cl`, the inhibition at 2 µM in [1] is 25.5%; in assay [4], 62.2%; in assay [7], 13.4%. For the same molecule, the inhibition at 6 µM was 98.5% in [2], 82.1% in [5] and 44.2% in assay [6]. Also, the figures for the inhibition at 12 µM in assay [3], in assay [8] and in assay [9] were 85.9%, 99.9% and 99.9%, respectively.
For the molecule `O=C(c1ccc(Cl)cc1Cl)C(Cl)Cl`, the inhibition at 2 µM in assay [1] stood at 35.2%; in [4] it was 80.2%; in assay [7] it was 1.8%. For the same molecule, the figures for the inhibition at 6 µM in assay [2], in assay [5] and in [6] were 96.9%, 89% and 4.4%, respectively. Moreover, the figures for the inhibition at 12 µM in assay [3], in [8] and in assay [9] were 48.4%, 99% and 99.8%, respectively.
Turning to `O=C(c1ccc(Cl)c(C(F)(F)F)c1)C(Cl)Cl`, the inhibition at 2 µM in assay [1] came out at 55.7%; in [4], 70.1%; in assay [7] it was 27.6%. Besides, the inhibition at 6 µM amounted to 97.6% in assay [2], 95.3% in assay [5] and 79.5% in assay [6]. Further, the inhibition at 12 µM was 94.5% in assay [3], 98.4% in assay [8] and 100% in [9].
For the molecule `O=C(c1cccc(Cl)c1)C(Cl)Cl`, the inhibition at 2 µM was found to be 24.9% in [1], 37% in assay [4] and 14.2% in [7]. In addition, the results for the inhibition at 6 µM in [2], in assay [5] and in assay [6] were 95.9%, 76.3% and 53.1%, respectively. Further, the inhibition at 12 µM in assay [3] was found to be 82.8%; in [8] it was 98.4%; in assay [9], 99.1%.
In the case of `O=C(c1ccc([N+](=O)[O-])cc1)C(Cl)Cl`, the inhibition at 2 µM came out at 35% in assay [1], 77.8% in assay [4] and 24.5% in assay [7]. The results for the inhibition at 6 µM in assay [2], in assay [5] and in [6] were 99.6%, 98.5% and 70.5%, respectively. For the same molecule, the inhibition at 12 µM in assay [3] turned out to be 97.6%; in assay [8], 99.4%; in assay [9], 99.9%.
For `O=C(c1ccc(C(F)(F)F)cc1)C(Cl)Cl`, the inhibition at 2 µM in [1] is 25.8%; in [4] it was 47.8%; in [7] it was 18.6%. Further, the values for the inhibition at 6 µM in assay [2], in assay [5] and in assay [6] were 91.6%, 49.7% and 37.1%, respectively. Further, the results for the inhibition at 12 µM in assay [3], in [8] and in [9] were 85.9%, 98.2% and 75.5%, respectively.
Turning to `O=C(c1ccc(I)cc1)C(Cl)Cl`, the results for the inhibition at 2 µM in assay [1], in assay [4] and in assay [7] were 29.3%, 33.8% and 9.3%, respectively. Also, the inhibition at 6 µM in [2] turned out to be 91.4%; in [5], 65.6%; in assay [6], 52.3%. In addition, the inhibition at 12 µM in assay [3] was 74.4%; in assay [8], 96.8%; in [9], 99.6%.
In the case of `CC(C)c1ccc(C(=O)CCl)cc1[N+](=O)[O-]`, the inhibition at 2 µM is 18.4% in [1] and 9% in [4]. Besides, the results for the inhibition at 6 µM in assay [2], in assay [5] and in assay [6] were 50.4%, 59.7% and 28.7%, respectively. Also, the inhibition at 12 µM in assay [3] was 75.6%; in assay [8], 99%; in assay [9], 95.7%. The inhibition entry in assay [7] is “inactive”.
In the case of `CCc1cccc(C(=O)C(Cl)Cl)c1`, the values for the inhibition at 2 µM in assay [1], in assay [4] and in [7] were 23.7%, 28% and 22.6%, respectively. For the same molecule, the inhibition at 6 µM was determined as 85.9% in [2], 64.1% in assay [5] and 25.7% in assay [6]. Further, the results for the inhibition at 12 µM in assay [3], in [8] and in assay [9] were 63.2%, 96.9% and 98.7%, respectively.
Take `O=C(c1ccc(F)c([N+](=O)[O-])c1)C(Cl)Cl`: the inhibition result in assay [1] and in assay [5] was “inactive” throughout. The inhibition at 6 µM in assay [2] stood at 73.3%; in assay [6] it was 20.4%. For the same molecule, the inhibition at 12 µM in assay [3] worked out at 51.1%; in [8], 97.6%; in assay [9], 14.5%. The inhibition at 2 µM came to 6.5% in assay [4] and 7% in [7].
For the molecule `Cc1cccc(C(=O)C(Cl)Cl)c1`, the inhibition at 2 µM worked out at 33.3% in assay [1], 42.5% in assay [4] and 14.2% in assay [7]. Further, the inhibition at 6 µM worked out at 97.3% in [2], 79.9% in assay [5] and 65.6% in assay [6]. The inhibition at 12 µM in assay [3] is 91.3%; in [8], 96.7%; in assay [9] it was 96.8%.
